This note sets out measurements from ChEMBL document CHEMBL3045394, “Synthesis and antiinflammatory activity of certain benzothieno[3,2-d][1,2,4]triazolo[4,3-b] pyridazine derivatives” (2012).

This experiment deals with Rattus norvegicus. The experiment can be described thus: Anti-inflammatory activity inRattus norvegicus albino (rat) assessed as inhibition of carageenaan-induced paw edema at 10 mg/kg, po administered 1 hr prior to carrageenan-challenge measured after 4 hr relative to control.
The inhibition in vivo is the share of the control response that was lost under treatment. In the case of `Oc1nn2cnnc2c2c1sc1c(Br)cccc12`, the inhibition in vivo at 10 mg/kg is 9.7%.

With `NNc1nn2cnnc2c2c1sc1c(Br)cccc12`, the inhibition in vivo at 10 mg/kg was found to be 52.8%.

Take `COc1ccccc1-c1nnc2c3c(sc4c(Br)cccc43)c(NN)nn12`: the inhibition in vivo at 10 mg/kg amounted to 78.7%.

`COc1ccccc1-c1nnc2c3c(sc4c(Br)cccc43)c(N3CCCCC3)nn12`: the inhibition in vivo at 10 mg/kg amounted to 8.4%.

For the compound `COc1ccc2c(c1)c(CC(=O)O)c(C)n2C(=O)c1ccc(Cl)cc1` [INDOMETHACIN], the inhibition in vivo at 10 mg/kg turned out to be 50.5%.
